US8168592B2 (Amgen Inc., priority 2005, dated 2012)
Where two headings read alike, the source gives them in different places. Each block holds one molecule with its values, some of them ahead of it. Bridge positions count the residues as written; N and C are the ends. Square brackets hold non-standard residues; d marks the D form. Ends that are not written are not given here. Peptide text beside a SMILES is read from it. Oic = O=C(O)[C@@H]1C[C@@H]2CCCC[C@@H]2N1; 2Nal = N[C@@H](Cc1ccc2ccccc2c1)C(=O)O; hArg = N=C(N)NCCCC[C@H](N)C(=O)O; Cit = NC(=O)NCCC[C@H](N)C(=O)O; PEG = not defined here

Molecular target: T1, CGRP1 receptor (Homo sapiens, UniProt O60894+Q16602)
T1 construct: SK-N-MC cells express CRLR and RAMP1, which form CGRP1 receptor; endogenous in cells; host or cells: SK-N-MC human neuroblastoma cells
Assay: in vitro CGRP1 receptor mediated cAMP assay in SK-N-MC cells
Assay type: cell-based
Conditions: for improved potency relative to native CGRP(8-37) (SEQ ID NO:1) / loss in antagonist activity on PEGylation relative to the unconjugated parent peptide: cAMP assay
Procedure: The in vitro cAMP assay employed a human neuroblastoma-derived cell line (SK-N-MC). SK-N-MC cells express CRLR and RAMP1, which form CGRP1 receptor. CGRP1 receptor is a G-protein coupled receptor linked to the stimulatory G-protein, Gs. […] Briefly, two days before the assay, the cells were plated in 96-well plates in growth medium. On the day of the assay cells were rinsed with PBS followed by the addition of 60 μl of plasma free medium for 15 minutes at room temperature. […] The medium was then removed and the cells were lysed with 100 μl lysis buffer for 30 minutes at 37° C. for 30 minutes. Using a Tropix ELISA kit (Applied Biosystems, Foster City, Calif.), a cAMP-AP conjugate was diluted (1:100) and added (30 μl) to each well of a 96-well ELISA plate. An aliquot of the lysis buffer from the cell plate was then added to the ELISA plate followed by an aliquot of the cAMP antibody. This mixture was incubated for 1 hour at room temperature with gentle shaking. The ELISA plate was then washed 6× with wash buffer followed by the additions of a substrate enhancer. This mixture was incubated for 30 minutes at room temperature and then read on a MicroBeta Jet or EnVision plate reader. The results were analyzed using Prism (GraphPad).

T1 sequence (Q16602 23-461): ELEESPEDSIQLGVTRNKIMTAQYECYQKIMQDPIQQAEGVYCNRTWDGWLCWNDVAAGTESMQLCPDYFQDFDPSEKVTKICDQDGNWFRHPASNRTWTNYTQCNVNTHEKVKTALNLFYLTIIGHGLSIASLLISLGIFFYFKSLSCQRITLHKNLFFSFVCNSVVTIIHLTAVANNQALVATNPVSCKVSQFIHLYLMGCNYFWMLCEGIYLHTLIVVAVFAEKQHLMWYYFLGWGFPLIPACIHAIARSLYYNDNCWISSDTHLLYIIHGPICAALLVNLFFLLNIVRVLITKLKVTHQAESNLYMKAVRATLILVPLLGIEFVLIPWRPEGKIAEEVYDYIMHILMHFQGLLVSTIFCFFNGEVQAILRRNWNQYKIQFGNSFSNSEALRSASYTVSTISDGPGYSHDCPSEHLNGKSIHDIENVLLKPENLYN
T1 sequence (O60894 27-148): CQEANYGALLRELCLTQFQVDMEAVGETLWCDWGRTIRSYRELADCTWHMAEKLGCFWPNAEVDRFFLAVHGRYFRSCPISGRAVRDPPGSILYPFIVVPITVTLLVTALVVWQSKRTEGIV

Molecule: CC(=O)N[C@@H](Cc1c[nH]c2ccccc12)C(=O)N[C@H](C(=O)N[C@H]1CCC(=O)NCCCC[C@@H](C(=O)NCC(=O)N[C@@H](CC(C)C)C(=O)N[C@@H](CC(C)C)C(=O)N[C@@H](CO)C(=O)N[C@@H](CCCCNC(=N)N)C(=O)N[C@@H](CO)C(=O)NCC(=O)NCC(=O)N[C@H](C(=O)N[C@H](C(=O)N[C@@H](CCCCNC(=N)N)C(=O)N[C@@H](CCCCN)C(=O)N[C@@H](CC(N)=O)C(=O)N[C@@H](Cc2ccccc2)C(=O)N[C@H](C(=O)N2CCC[C@H]2C(=O)N[C@H](C(=O)N[C@@H](CC(=O)O)C(=O)N[C@H](C(=O)NCC(=O)N2CCC[C@H]2C(=O)N[C@@H](Cc2ccccc2)C(=O)N[C@@H](C)C(=O)N[C@@H](Cc2ccccc2)C(N)=O)C(C)C)[C@@H](C)O)C(C)C)C(C)C)C(C)C)NC(=O)[C@H](CC(C)C)NC(=O)[C@H](CCCNC(=N)N)NC(=O)[C@H](Cc2c[nH]cn2)NC1=O)C(C)C [compound 905] (Ac-WVEHRLKGLLS[hArg]SGGVV[hArg]KNFVPTDVGPFAF-NH2; lactam 3-7)
IC50 (Peptide IC50, Table 2C, unconjugated peptide): 1.7 nM

Molecule: CC(=O)N[C@@H](Cc1c[nH]c2ccccc12)C(=O)N[C@H](C(=O)N[C@H](C(=O)N[C@@H](Cc1c[nH]cn1)C(=O)N[C@@H](CCCNC(=N)N)C(=O)N[C@@H](CC(C)C)C(=O)N[C@@H](C)C(=O)NCC(=O)N[C@@H](CC(C)C)C(=O)N[C@@H](CC(C)C)C(=O)N[C@@H](CO)C(=O)N[C@H](CCCNC(=N)N)C(=O)N[C@@H](CO)C(=O)NCC(=O)NCC(=O)N[C@H](C(=O)N[C@H](C(=O)N[C@@H](CCCNC(=N)N)C(=O)N[C@@H](CS)C(=O)N[C@@H](CC(N)=O)C(=O)N[C@@H](Cc1ccccc1)C(=O)N[C@H](C(=O)N1CCC[C@H]1C(=O)N[C@H](C(=O)N[C@@H](CC(=O)O)C(=O)N[C@H](C(=O)NCC(=O)N1CCC[C@H]1C(=O)N[C@@H](Cc1ccccc1)C(=O)N[C@@H](C)C(=O)N[C@@H](Cc1ccccc1)C(N)=O)C(C)C)[C@@H](C)O)C(C)C)C(C)C)C(C)C)[C@@H](C)O)C(C)C [compound 776] (Ac-WVTHRLAGLLS[dR]SGGVVRCNFVPTDVGPFAF-NH2)
IC50 (Table 2D, read-out: IC50): 0.59 nM

Molecule: CC(=O)N[C@@H](Cc1c[nH]c2ccccc12)C(=O)N[C@H](C(=O)N[C@H](C(=O)N[C@@H](Cc1c[nH]cn1)C(=O)N[C@@H](CCCNC(N)=O)C(=O)N[C@@H](CC(C)C)C(=O)N[C@@H](C)C(=O)NCC(=O)N[C@@H](CC(C)C)C(=O)N[C@@H](CC(C)C)C(=O)N[C@@H](CO)C(=O)N[C@@H](CCCNC(N)=O)C(=O)N[C@@H](CO)C(=O)NCC(=O)NCC(=O)N[C@H](C(=O)N[C@H](C(=O)N[C@@H](CCCCNC(=N)N)C(=O)N[C@@H](CCCCN)C(=O)N[C@@H](CC(N)=O)C(=O)N[C@@H](Cc1ccc2ccccc2c1)C(=O)N[C@H](C(=O)N1CCC[C@H]1C(=O)N[C@H](C(=O)N[C@@H](CC(=O)O)C(=O)N[C@H](C(=O)NCC(=O)N1[C@H](C(=O)N[C@@H](Cc2ccccc2)C(=O)N[C@@H](C)C(=O)N[C@@H](Cc2ccc3ccccc3c2)C(N)=O)C[C@@H]2CCCC[C@@H]21)C(C)C)[C@@H](C)O)C(C)C)C(C)C)C(C)C)[C@@H](C)O)C(C)C [compound 138] (Ac-WVTH[Cit]LAGLLS[Cit]SGGVV[hArg]KN[2Nal]VPTDVG[Oic]FA[2Nal]-NH2)
IC50 (Table 2A, read-out: IC50): 3.45 nM

Molecule: SEQ ID NO:3 (CGGGGGGGVTHRLAGLLSRSGGVVKNNFVPTDVGPFAF-NH2)
improved potency relative to native CGRP(8-37) (SEQ ID NO:1): more than 6 fold

Molecule: SEQ ID NO:16 (Ac-WVTHRLAGLLSRSGGVVRK(PEG)NFVPTDVGPFAF-NH2; reading uncertain)
improved potency relative to native CGRP(8-37) (SEQ ID NO:1): about 12 fold
loss in antagonist activity on PEGylation relative to the unconjugated parent peptide: three

Molecule: Ac-WVTHRLAGLLSRSGGVVCNNFVPTDVGPFAF-NH2 [compound 9]
IC50 (Table 3, unconjugated CGRP peptide analogs, n = 2-4, read-out: IC50): 2.15 nM

Molecule: CC(=O)N[C@@H](CCCNC(N)=O)C(=O)N[C@@H](CC(C)C)C(=O)N[C@@H](C)C(=O)NCC(=O)N[C@@H](CC(C)C)C(=O)N[C@@H](CC(C)C)C(=O)N[C@@H](CO)C(=O)N[C@@H](CCCNC(N)=O)C(=O)N[C@@H](CO)C(=O)NCC(=O)NCC(=O)N[C@H](C(=O)N[C@H](C(=O)N[C@@H](CCCCNC(=N)N)C(=O)N[C@@H](CCCCN)C(=O)N[C@@H](CC(N)=O)C(=O)N[C@@H](Cc1ccccc1)C(=O)N[C@H](C(=O)N1CCC[C@H]1C(=O)N[C@H](C(=O)N[C@@H](CC(=O)O)C(=O)N[C@H](C(=O)NCC(=O)N1CCC[C@H]1C(=O)N[C@@H](Cc1ccccc1)C(=O)N[C@@H](C)C(=O)N[C@@H](Cc1ccccc1)C(N)=O)C(C)C)[C@@H](C)O)C(C)C)C(C)C)C(C)C [compound 657] (Ac-[Cit]LAGLLS[Cit]SGGVV[hArg]KNFVPTDVGPFAF-NH2)
IC50 (Table 2A, read-out: IC50): 13 nM

More lines, now with the values ahead:

loss in antagonist activity on PEGylation relative to the unconjugated parent peptide: greater than 32 fold
Molecule: SEQ ID NO:42 (Ac-WVTHRLAGLLS[dR]SGGVVRCNFVPTDVGPFAF-NH2; not fully specified (residue 19); printed as Ac-WVTHRLAGLLSrSGGVVRCNFVPTDVGPFAF-NH2)

IC50 (Table 2C, unconjugated peptide, read-out: Peptide IC50): 0.49 nM
Molecule: CC(=O)N[C@@H](Cc1c[nH]c2ccccc12)C(=O)N[C@H](C(=O)N[C@H]1CCC(=O)NCCCC[C@@H](C(=O)NCC(=O)N[C@H]2CCC(=O)NCCCC[C@@H](C(=O)NCC(=O)NCC(=O)N[C@H](C(=O)N[C@H](C(=O)N[C@@H](CCCCNC(=N)N)C(=O)N[C@@H](CCCCN)C(=O)N[C@@H](CC(N)=O)C(=O)N[C@@H](Cc3ccccc3)C(=O)N[C@H](C(=O)N3CCC[C@H]3C(=O)N[C@H](C(=O)N[C@@H](CC(=O)O)C(=O)N[C@H](C(=O)NCC(=O)N3CCC[C@H]3C(=O)N[C@@H](Cc3ccccc3)C(=O)N[C@@H](C)C(=O)N[C@@H](Cc3ccccc3)C(N)=O)C(C)C)[C@@H](C)O)C(C)C)C(C)C)C(C)C)NC(=O)[C@H](CCCNC(N)=O)NC(=O)[C@H](CO)NC(=O)[C@H](CC(C)C)NC2=O)NC(=O)[C@H](CC(C)C)NC(=O)[C@H](CCCNC(=N)N)NC(=O)[C@H](Cc2c[nH]cn2)NC1=O)C(C)C [compound 902]

IC50 (Table 2D, read-out: IC50): 2.1 nM
Molecule: CC(=O)N[C@@H](Cc1c[nH]c2ccccc12)C(=O)N[C@H](C(=O)N[C@H](C(=O)N[C@@H](Cc1cnc[nH]1)C(=O)N[C@@H](CCCCNC(=N)N)C(=O)N[C@@H](CC(C)C)C(=O)N[C@@H](C)C(=O)NCC(=O)N[C@@H](CC(C)C)C(=O)N[C@@H](CC(C)C)C(=O)N[C@@H](CO)C(=O)N[C@@H](CCCCNC(=N)N)C(=O)N[C@@H](CO)C(=O)NCC(=O)NCC(=O)N[C@H](C(=O)N[C@H](C(=O)N[C@@H](CCCNC(=N)N)C(=O)N[C@@H](CCCCN)C(=O)N[C@@H](CC(N)=O)C(=O)N[C@@H](Cc1ccccc1)C(=O)N[C@H](C(=O)N1CCC[C@H]1C(=O)N[C@H](C(=O)N[C@@H](CC(=O)O)C(=O)N[C@H](C(=O)NCC(=O)N1CCC[C@H]1C(=O)N[C@@H](Cc1ccccc1)C(=O)N[C@@H](C)C(=O)N[C@@H](Cc1ccccc1)C(N)=O)C(C)C)[C@@H](C)O)C(C)C)C(C)C)C(C)C)[C@@H](C)O)C(C)C [compound 784]
